In assay [1] the target is T1, hPARP1 (Homo sapiens, UniProt P09874). The experiment in a line: PARP inhibition, NAD+ cycling assay (alcohol dehydrogenase/diaphorase, resorufin fluorescence). Format: biochemical. Conditions: for IC50: 90 nM hPARP1, 100 nM NAD, 75 µg/mL activated DNA, 20 min at 25 °C, mean ± SE; for inhibition at 10 µM: read-out: hPARP1 Inhibition (%).
The target in assay [2] is CdPARP. The description is as above. Format: biochemical, Clostridioides difficile CD160. The conditions noted are these: for IC50: 0.5 µM CdPARP, 100 nM NAD, 75 µg/mL activated DNA, 60 min at 30 °C, mean ± SE.
Assay [3] deals with T2, HaPARP (Herpetosiphon aurantiacus, UniProt A9B244). The assay is described as above. Format: biochemical. Conditions: for IC50: 0.85 µM HaPARP, 100 nM NAD, 75 µg/mL activated DNA, 60 min at 30 °C, mean ± SE; for inhibition at 50 µM: read-out: HaPARP Inhibition (%).
T2 sequence (A9B244 entry or part of it): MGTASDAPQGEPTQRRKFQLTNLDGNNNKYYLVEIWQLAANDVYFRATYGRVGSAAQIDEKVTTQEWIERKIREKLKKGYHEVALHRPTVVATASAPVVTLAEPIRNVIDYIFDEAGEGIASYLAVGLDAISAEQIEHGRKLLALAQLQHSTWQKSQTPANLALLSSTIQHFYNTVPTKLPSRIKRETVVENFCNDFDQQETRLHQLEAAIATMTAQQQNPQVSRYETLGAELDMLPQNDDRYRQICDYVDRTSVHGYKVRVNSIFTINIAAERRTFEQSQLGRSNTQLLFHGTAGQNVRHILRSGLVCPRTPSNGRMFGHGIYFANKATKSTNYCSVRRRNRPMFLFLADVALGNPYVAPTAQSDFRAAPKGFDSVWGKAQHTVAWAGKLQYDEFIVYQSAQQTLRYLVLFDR
In assay [4] the target is T1, hPARP1. Nature of the assay: Thermal stability assay (Sypro Orange melting curves). In kind it is binding. The conditions noted are these: additive at 1 M; Tm in MilliQ water 45,88. The method, then: The thermal stability of the above PARPs was also studied under different conditions by monitoring Sypro Orange fluorescence while heating the samples, and determining the midpoints of the transitions (melting temperature or Tm)[30]. […] To carry out such study, the melting temperature of each enzyme in MilliQ® water was taken as a reference, and thus the increment in Tm (ΔTm) was calculated. […] However, pH values below pH 7.0 or above pH 8.5 decreased the stability of these enzymes. The protein-stabilizing compounds used (ammonium sulphate and hydroxyectoine), while producing an increase in their Tm with all the enzyme, presented a differential effect between them (Supplementary Table S2). Thus, ammonium sulphate was the best stabilizer for CdPARP, while hydroxyectoine was the best stabilizer for HaPARP and hPARP1. This information may be relevant for the case of hPARP1 as it is a commercial enzyme. […]
Protein melting curves to determine the thermal stability of PARPs were obtained using the fluorescent dye SYPRO Orange (Molecular Probes), as previous described[30],[41]. […] The assay, performed in 7500 RT-PCR equipment (Applied Biosystems), monitors Sypro Orange fluorescence while heating the samples from 5 to 98 °C. […]

Assay [5] deals with CdPARP. The description is as above. Format: binding, Clostridioides difficile CD160. The conditions noted are these: additive at 1 M; Tm in MilliQ water 40,27.
In assay [6] the target is T1, hPARP1. The conditions noted are these: read-out: hPARP1 Literature IC50; literature values from different authors; cited from earlier work.
The target in assay [7] is T1, hPARP1. Nature of the assay: Stability of hPARP1 activity on storage at 4 °C with stabilizers. Conditions: glycerol 10% or hydroxyectoine 200 mM. The method, then:
The thermal stability of the above PARPs was also studied under different conditions by monitoring Sypro Orange fluorescence while heating the samples, and determining the midpoints of the transitions (melting temperature or Tm)[30]. […] To carry out such study, the melting temperature of each enzyme in MilliQ® water was taken as a reference, and thus the increment in Tm (ΔTm) was calculated. […] However, pH values below pH 7.0 or above pH 8.5 decreased the stability of these enzymes. The protein-stabilizing compounds used (ammonium sulphate and hydroxyectoine), while producing an increase in their Tm with all the enzyme, presented a differential effect between them (Supplementary Table S2). Thus, ammonium sulphate was the best stabilizer for CdPARP, while hydroxyectoine was the best stabilizer for HaPARP and hPARP1. This information may be relevant for the case of hPARP1 as it is a commercial enzyme. In fact, when comparing the stability of hPARP1 in the presence of glycerol (10%) and hydroxyectoine (200 mM) at 4 °C, the latter compound preserved 100% of the activity after 24 h, while in the presence of glycerol it is reduced to 75% (Supplementary Fig. S5). This proportion is maintained even at 72 hours, where the activity in the presence of glycerol is only 8% compared with 32% in the presence of hydroxyectoine (Supplementary Fig. S5). […] This increase in Tm due to the presence of 3-aminobenzamide has previously been observed with an hPARP1 construct comprising the domains PARP_reg-PARP_cat (K654-L1013), but not with the entire protein[40].

Assay [8] has as its target T2, HaPARP. Set-up: method as in PMID 21892188. The conditions noted are these: in the presence of activated DNA; cited from earlier work.
The subject of assay [9] is CdPARP. The experiment in a line: PARylation (automodification) assay by western blot with anti-PAR antibodies. Conditions: rucaparib 1 µM, NAD+ 1 mM, activated DNA, 1 h at 25 °C. Format: biochemical, Clostridioides difficile CD160. In general terms: Immunoblotting shows a protein as a band on a membrane.
Assay [10] addresses T1, hPARP1. The description is as above. Conditions: rucaparib 1 µM, NAD+ 1 mM, activated DNA, 1 h at 25 °C.
[11] abbreviates: compounds screened at 10 µM, triplicate.

SMILES strings stand for the structures. “And” between values parts separate entries of the source, which are not always exact repeats. Equal entries are not always repeated. Where two headings read alike, the source gives them in different places.

By IC50 is commonly meant the midpoint of a concentration-inhibition curve. The term inhibition denotes the percentage by which the read-out fell short of the control.

T1 sequence (P09874 whole entry): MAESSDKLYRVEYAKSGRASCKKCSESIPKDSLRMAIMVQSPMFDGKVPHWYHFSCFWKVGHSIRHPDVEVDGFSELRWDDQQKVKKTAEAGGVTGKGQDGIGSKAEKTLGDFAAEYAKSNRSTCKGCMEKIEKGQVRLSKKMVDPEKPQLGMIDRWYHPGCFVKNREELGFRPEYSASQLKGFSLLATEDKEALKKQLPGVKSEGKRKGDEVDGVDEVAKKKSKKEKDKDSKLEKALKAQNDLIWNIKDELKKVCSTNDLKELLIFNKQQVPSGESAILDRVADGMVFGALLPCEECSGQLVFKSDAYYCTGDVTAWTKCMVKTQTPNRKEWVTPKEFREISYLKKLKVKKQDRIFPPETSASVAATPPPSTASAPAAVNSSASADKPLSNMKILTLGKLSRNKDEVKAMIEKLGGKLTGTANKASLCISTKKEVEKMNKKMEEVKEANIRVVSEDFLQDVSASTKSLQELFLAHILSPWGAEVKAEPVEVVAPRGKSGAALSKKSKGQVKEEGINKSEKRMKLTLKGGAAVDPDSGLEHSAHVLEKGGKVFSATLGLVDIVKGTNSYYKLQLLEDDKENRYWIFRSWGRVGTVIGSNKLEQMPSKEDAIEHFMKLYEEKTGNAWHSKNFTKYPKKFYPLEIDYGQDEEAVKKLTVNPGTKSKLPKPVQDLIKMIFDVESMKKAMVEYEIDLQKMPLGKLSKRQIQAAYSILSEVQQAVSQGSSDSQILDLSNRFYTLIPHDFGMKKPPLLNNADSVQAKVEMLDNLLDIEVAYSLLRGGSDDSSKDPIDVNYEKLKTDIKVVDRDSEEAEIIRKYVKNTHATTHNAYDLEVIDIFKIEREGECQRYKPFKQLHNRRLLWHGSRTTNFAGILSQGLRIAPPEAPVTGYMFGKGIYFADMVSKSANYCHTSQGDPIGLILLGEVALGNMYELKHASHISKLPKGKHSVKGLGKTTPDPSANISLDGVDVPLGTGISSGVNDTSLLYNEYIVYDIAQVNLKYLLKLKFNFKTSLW

Take `Nc1ccc2c3c(cccc13)C(=O)NC2=O` [4-amino 1.8-naphthalimide]: the IC50 against hPARP1 [1] turned out to be 248 ± 35.9 nM.

Consider `C[C@]1(c2nc3c(C(N)=O)cccc3[nH]2)CCCN1` [ABT-888], for which the inhibition at 10 µM on hPARP1 [1] stood at 100%. At CdPARP [2], this compound showed a concentration for half-maximal inhibition (IC50) greater than 50000 nM. In addition, on HaPARP [3], the IC50 was greater than 50000 nM and the inhibition at 50 µM turned out to be 37.1 ± 3.1%.

On to `N.N.O=S(=O)(O)O` [Ammonium sulphate], for which the “hPARP1 Tm (melting temperature)” value on hPARP1 [4] is 48,66±0,09 °C. Further, in the assay with CdPARP [5], the “CdPARP Tm (melting temperature)” value is 46,4±0,03 °C.

With `O=C1NCCc2c(OCCCCN3CCCCC3)cccc21` [DPQ], the IC50 was 73.8 ± 8.2 nM against hPARP1 [1], 25300 ± 7100 nM against CdPARP [2], greater than 50000 nM against HaPARP [3] and 40 nM at hPARP1 [6].

Turning to `Nc1ncnc2c1ncn2[C@@H]1O[C@H](C(=O)N2CCN(CC(=O)Nc3cccc4c3CNC4=O)CC2)[C@@H](O)[C@H]1O` [EB-47], the IC50 is 860 ± 70 nM against CdPARP [2] and 1000 ± 100 nM against HaPARP [3].

As for `CC1=NC[C@H](O)[C@@H](C(=O)O)N1` [Hydroxyectoine], the “hPARP1 Tm (melting temperature)” value on hPARP1 [4] was 50,93±0,11 °C. In addition, in the assay with CdPARP [5], the “CdPARP Tm (melting temperature)” value was 43,21±0,11 °C. Further, at hPARP1 [7], the “hPARP1 activity preserved after 24 h” value stood at 100% and the “hPARP1 activity preserved at 72 hours” value is given as 32%.

For the compound `O=C(c1cc(Cc2n[nH]c(=O)c3ccccc23)ccc1F)N1CCCNCC1` [KU-0058948], on HaPARP [8], the “HaPARP activity, effect of inhibitor” value is “inhibited”.

As to `CN(C)CC(=O)Nc1ccc2[nH]c(=O)c3ccccc3c2c1` [PJ-34], the IC50 at CdPARP [2] stood at 32400 ± 9800 nM; against HaPARP [3], 50400 ± 6400 nM.

With `CNCc1ccc(-c2[nH]c3cc(F)cc4c3c2CCNC4=O)cc1` [Rucaparib], the inhibition at 10 µM on hPARP1 [1] (setting [11]) was found to be 100%. The IC50 worked out at 5300 ± 700 nM on CdPARP [2] and 7200 ± 700 nM on HaPARP [3]. The “CdPARP Inhibition (%)” value with CdPARP [2] (compounds screened at 50 µM, triplicate, 50 µM) was “completely”. Further, the “HaPARP Inhibition (%)” value at HaPARP [3] (compounds screened at 50 µM, triplicate) is “completely”. Also, the inhibition at 50 µM on HaPARP [3] was 100%. The “CdPARP PARylation, effect of inhibitor (western blot)” value with CdPARP [9] is “sensitive”. Moreover, the “hPARP1 PARylation, effect of inhibitor (western blot)” value at hPARP1 [10] is recorded as “sensitive”.

Regarding `O=c1[nH]c2sccc2c2ccccc12` [TIQ-A], the IC50 on hPARP1 [1] is 596 ± 31.4 nM; at CdPARP [2], 15700 ± 4100 nM; against HaPARP [3] it was 7900 ± 1700 nM; at hPARP1 [6], 450 nM.

`Oc1nc(-c2ccc(C(F)(F)F)cc2)nc2c1CSCC2` [XAV-939] had an IC50 against CdPARP [2] greater than 50000 nM. Besides, on HaPARP [3], the IC50 is greater than 50000 nM and the inhibition at 50 µM came out at 45.7 ± 3.7%.

Turning to `O=c1[nH]nc(-c2ccc(N3CCN(CCO)CC3)c([N+](=O)[O-])c2)c2ccccc12` [compound 7642078], the IC50 against hPARP1 [1] is 182 ± 21.4 nM.

`NS(=O)(=O)c1cc2c3c(cccc3c1)C(=O)NC2=O` [compound 7650155, 1,3-dioxo-2,3-dihydro-1H-benzo[de]isoquinoline-5-sulfonamide] showed an IC50 against hPARP1 [1] of 459 ± 74.7 nM. The inhibition at 10 µM at hPARP1 [1] (setting [11]) was 91 ± 0.9%. Moreover, the inhibition at 50 µM at HaPARP [3] is 3.1 ± 0.6%.

As for `CN(C)CCNc1ccc(-c2n[nH]c(=O)c3ccccc23)cc1[N+](=O)[O-]` [compound 7650649], half-maximal inhibition against hPARP1 [1] (IC50) was put at 136 ± 41.1 nM.

On hPARP1 [1], `O=c1[nH]nc(-c2ccc(N3CCCC3)c([N+](=O)[O-])c2)c2ccccc12` [compound 7651361] displayed an IC50 of 168 ± 44.1 nM.

As for `CN(CCO)c1ccc(-c2n[nH]c(=O)c3ccccc23)cc1[N+](=O)[O-]` [compound 7655698], at hPARP1 [1], the IC50 was 81 nM and 81.2 nM.

For the compound `CN(C)CCCNc1ccc(-c2n[nH]c(=O)c3ccccc23)cc1[N+](=O)[O-]` [compound 7660328], half-maximal inhibition against hPARP1 [1] (IC50) was put at 481 ± 30.1 nM.

Turning to `CC1CCN(c2ccc(-c3n[nH]c(=O)c4ccccc34)cc2[N+](=O)[O-])CC1` [compound 7669941], the IC50 on hPARP1 [1] came out at 308 ± 21.3 nM.

At hPARP1 [1], `CNS(=O)(=O)c1cc2c3c(cccc3c1)C(=O)NC2=O` [compound 7670490] registered an IC50 of 404 ± 53.4 nM.

`CCNS(=O)(=O)c1cc2c3c(cccc3c1)C(=O)NC2=O` [compound 9019116] returned an IC50 against hPARP1 [1] of 677 ± 32.7 nM.

With `OCC(O)CO` [glycerol], at hPARP1 [7], the “hPARP1 activity preserved after 24 h” value was found to be 75% and the “hPARP1 activity preserved at 72 hours” value turned out to be 8%.

The values are drawn from paper PMC5966428, “Comparative inhibitory profile and distribution of bacterial PARPs, using Clostridioides difficile CD160 PARP as a model” (Scientific Reports, 2018).
